Experimental data: the NIST ThermoML archive (doi:10.1016/j.fluid.2011.01.001)

Key:
[1] = 101.33 kPa, Liquid, Vibrating tube method
[2] = refractive index (Na D-line) (dimensionless); settings: 101.33 kPa, Liquid, Standard Abbe refractometry
[3] = mn = molality of the nth substance listed, in mol/kg; settings: 101 kPa, Liquid, Vibrating tube method

CCn1cc[n+](C)c1.COS(=O)(=O)[O-] [1-ethyl-3-methylimidazolium methylsulfate]
Settings | mass density, 298.15 K [kg/m3] | mass density, 308.15 K [kg/m3] | mass density, 318.15 K [kg/m3] | mass density, 328.15 K [kg/m3] | refractive index, 298.15 K | refractive index, 308.15 K | refractive index, 318.15 K | refractive index, 328.15 K
[1] | 1361.2 | 1333.2 | 1319.2 | 1300.3 | – | – | – | –
[2] | – | – | – | – | 1.4822 | 1.4782 | 1.4759 | 1.4704

CCn1cc[n+](C)c1.COS(=O)(=O)[O-] [1-ethyl-3-methylimidazolium methylsulfate] + O
mass density [kg/m3], [3]
Settings | 298.15 K | 308.15 K | 318.15 K | 328.15 K
m1 = 0.0166 | 998.28 | 995.1 | 991.05 | 985.78
m1 = 0.0244 | 998.78 | 995.59 | 991.42 | 986.12
m1 = 0.0302 | 999.18 | 995.94 | 991.68 | 986.36
m1 = 0.0372 | 999.58 | 996.31 | 992 | 986.62
m1 = 0.0702 | 1001.29 | 997.81 | 993.46 | 987.97
m1 = 0.077 | 1001.59 | 998.05 | 993.68 | 988.23
m1 = 0.0961 | 1002.25 | 998.74 | 994.43 | 988.9
m1 = 0.1191 | 1003.09 | 999.51 | 995.31 | 989.75
m1 = 0.1346 | 1003.69 | 999.99 | 995.93 | 990.36
m1 = 0.1823 | 1005.3 | 1002.08 | 997.93 | 992.14
m1 = 0.3343 | 1011.4 | 1008.04 | 1003.88 | 997.71
m1 = 0.4226 | 1014.99 | 1011.67 | 1007.18 | 1000.86
m1 = 0.5486 | 1020.29 | 1017.02 | 1011.85 | 1005.32
m1 = 0.573 | 998.28 | 1018.1 | 1012.71 | 1006.1

CCCCCCn1cc[n+](C)c1.CCOS(=O)(=O)[O-] [1-hexyl-3-methylimidazolium ethyl sulfate]
Settings | mass density, 298.15 K [kg/m3] | mass density, 308.15 K [kg/m3] | mass density, 318.15 K [kg/m3] | mass density, 328.15 K [kg/m3] | refractive index, 298.15 K | refractive index, 308.15 K | refractive index, 318.15 K | refractive index, 328.15 K
[1] | 1137.54 | 1130.74 | 1124.29 | 1117.81 | – | – | – | –
[2] | – | – | – | – | 1.4677 | 1.4636 | 1.4596 | 1.4566

CCCCCCn1cc[n+](C)c1.CCOS(=O)(=O)[O-] [1-hexyl-3-methylimidazolium ethyl sulfate] + O
mass density [kg/m3], [3]
Settings | 298.15 K | 308.15 K | 318.15 K | 328.15 K
m1 = 0.0113 | 997.55 | 994.52 | 990.63 | 985.41
m1 = 0.0347 | 998.58 | 995.5 | 991.48 | 986.2
m1 = 0.0419 | 998.9 | 995.8 | 991.73 | 986.44
m1 = 0.0614 | 999.73 | 996.6 | 992.41 | 987.07
m1 = 0.0677 | 1000 | 996.84 | 992.62 | 987.28
m1 = 0.1085 | 1001.65 | 998.38 | 994 | 988.57
m1 = 0.2177 | 1005.67 | 1002.07 | 997.31 | 991.8
m1 = 0.3501 | 1010 | 1005.78 | 1000.86 | 995.29
m1 = 0.433 | 1012.3 | 1007.9 | 1002.92 | 997.21
m1 = 0.5618 | 1015.56 | 1010.89 | 1005.91 | 1000.07
m1 = 0.7474 | 1019.59 | 1014.5 | 1009.79 | 1003.7
m1 = 0.8741 | 1021.74 | 1016.59 | 1012.03 | 1005.94
m1 = 1.17 | 1025.65 | 1020.79 | 1016.28 | 1010.91
m1 = 1.343 | 1027.8 | 1023.36 | 1018.31 | 1013.65

CCCCCCn1cc[n+](C)c1.COS(=O)(=O)[O-] [1-hexyl-3-methylimidazolium methyl sulfate]
Settings | mass density, 298.15 K [kg/m3] | mass density, 308.15 K [kg/m3] | mass density, 318.15 K [kg/m3] | mass density, 328.15 K [kg/m3] | refractive index, 298.15 K | refractive index, 308.15 K | refractive index, 318.15 K | refractive index, 328.15 K
[1] | 1156.93 | 1150.32 | 1143.84 | 1137.38 | – | – | – | –
[2] | – | – | – | – | 1.4733 | 1.4708 | 1.4683 | 1.4654

CCCCCCn1cc[n+](C)c1.COS(=O)(=O)[O-] [1-hexyl-3-methylimidazolium methyl sulfate] + O
mass density [kg/m3], [3]
Settings | 298.15 K | 308.15 K | 318.15 K | 328.15 K
m1 = 0.0118 | 997.55 | 994.47 | 990.58 | 985.32
m1 = 0.0314 | 998.37 | 995.17 | 991.17 | 985.78
m1 = 0.0497 | 999.1 | 995.8 | 991.69 | 986.21
m1 = 0.076 | 1000.09 | 996.65 | 992.4 | 986.8
m1 = 0.0937 | 1000.68 | 997.19 | 992.86 | 987.21
m1 = 0.154 | 1002.59 | 998.9 | 994.35 | 988.41
m1 = 0.3076 | 1006.3 | 1002.6 | 997.53 | 990.95
m1 = 0.5023 | 1010.81 | 1006.62 | 1001.55 | 994.25
m1 = 0.6255 | 1013.9 | 1009.13 | 1003.9 | 996.3
m1 = 0.7024 | 1015.42 | 1010.54 | 1005.28 | 997.49
m1 = 0.8838 | 1020.02 | 1014 | 1008.57 | 1000.18
m1 = 1.071 | 1024.02 | 1017.44 | 1012.23 | 1002.98
m1 = 1.284 | 1028.91 | 1021.24 | 1015.5 | 1005.89
m1 = 1.544 | 1034.22 | 1026.15 | 1020.01 | 1009
